Results from US20200069775A1, “BRAIN OSTEOCALCIN RECEPTOR AND COGNITIVE DISORDERS” (The Trustees of Columbia University in the City of New York, priority 2017, published 2020).

Legend:
[1] = tested on: Tph2, Th, Gad1 expression in brainstem and midbrain explants; test: Gene expression (qPCR) in brainstem and midbrain explants; type: cell-based, mouse
Method: For gene expression studies, RNA was isolated from primary neurons or tissue using TRIZOL® (Invitrogen). cDNA synthesis was performed following a standard protocol from Invitrogen and qPCR analyses were done using specific quantitative PCR primers from SABiosciences (http://www.sabiosciences.com/RT2PCR.php).
Brains were dissected and incubated for 30 minutes in ice cold oxygenated artificial cerebrospinal fluid (ACSF). Brains were then sliced at 500 μm at the midbrain, −1.55 to −2.35 mm from the bregma, and at the level of the brainstem, from −4.04 to −4.48 mm and from −4.60 to −5.20 mm from the bregma, to include the median and dorsal raphe, respectively. These slices were incubated in ACSF for 1 h, constantly oxygenated (95% O2 and 5% CO2) […], after which they were treated with either osteocalcin (10 ng/ml) or PBS for four hours. Expression of Tph2, TH, GAD 1, GAD2, and Ddc was measured by qPCR.
To determine if osteocalcin acts directly on neurons to modulate neurotransmitter synthesis, several types of assays were performed. First, brainstem and midbrain explants from WT and Gprc6a^−/− mice were generated. Brains were sliced (500 μm) at the level of the median and dorsal raphe of the brainstem (from −4.04 to −4.48 mm and from −4.60 to −5.20 mm, respectively), so that they would be enriched in serotonin-producing neurons, as well as at the level of substantia nigrae and ventral tegmental areas (VTA) of the midbrain (from −1.55 to −2.35 mm and from −2.55 to −3.25 mm, respectively). Enrichment in serotoninergic and catecholaminergic neurons in these explants was verified by their high Tph2 and Th expression. While leptin, used here as a positive control, reduced, as it should, Tph2 expression in WT or Gprc6a^−/− brainstem explants, osteocalcin ([…]) increased expression of this gene 2.5 fold in both WT and Gprc6a^−/− explants. (FIG. 3D). […] Third, to further confirm that osteocalcin signals in neurons of the hindbrain, calcium flux in MPHN treated with undercarboxylated or carboxylated osteocalcin (FIG. 3F) was measured.

[2] = tested on: 12 and 16 month-old WT mice; test: Peripheral osteocalcin delivery by mini-pumps in aging WT mice, DLT, EPMT, MWMT, NOR; type: in vivo, mouse; details: 30 or 90 ng/h peripherally via mini-pumps for 60 days
Method: For plasma injection experiments, 100 μl of plasma were injected 8 times during 24 days, via tail vein. Each group described is represented individually in each panel. For osteocalcin delivery in WT mice, pumps (Alzet micro-osmotic pump, Model 1002) delivering osteocalcin (30 ng/hr for 12 month-old and 90 ng/hr for 16 month-old mice), or vehicle, were surgically installed subcutaneously in the back of mice. For alendronate delivery to 3 month-old mice, intraperitoneal injections (40 μg/kg) were performed twice a week for 6 weeks. During the last 4 weeks of treatment and during behavioral testing, half of the alendronate-treated mice received 60 ng/hr osteocalcin by osmotic pump. […]
Elevated plus maze test (EPMT): This test takes advantage of the aversion of rodents to open spaces. […] The total number of arm entries and time spent in open arms is recorded. […]
Light to dark transition test: This test is based on the innate aversion of rodents to brightly illuminated areas and on their spontaneous exploratory behavior in response to the stressor that light represents. […] Mice were tested for 6 min and […] were recorded: (i) latency to enter the lit compartment, (ii) time spent in this compartment, an index of the anxiety-related behavior and (iii) number of transitions between compartments, an index of anxiety-related behavior as well as exploratory activity. […]

## osteocalcin: Recombinant osteocalcin bacterially produced, cleaved from the GST subunit; completely undercarboxylated at all three sites; full-length mouse osteocalcin (YLGASVPSPDPLEPTREQCELNPACDELSDQYGLKTAYKRIYGITI)
[1]; WT and Gprc6a−/− hindbrain explants
  Gad1 expression: decreased Gad1 expression
[1]; midbrain explants
  Th expression: increased Th expression
[1]; osteocalcin 3 ng/ml, WT and Gprc6a−/− brainstem explants
  increase of Tph2 expression: 2.5 fold
[2]; 12- and 16-month-old WT mice
  memory (MWMT and NOR): memory was significantly improved
[2]; 12 and 16 month-old WT mice
  exploratory and anxiety-like behavior (DLT or EPMT): better exploratory behavior and decreased anxiety-like behavior
